Data set [1] has as its system Tetranychus urticae with organophosphate resistance. The data set can be described thus: Test Case 2 Efficacy Against Tetranychus urticae. The note with it: 125 ppm wettable powder (Formulation Example 1) applied to bean leaf with female adults; 25° C., humidity 65%; after three days.
The subject of data set [2] is Aphis gossypii. Kind of data set: Test case 1 Efficacy against Aphis gossypii. The data set is classed as in vivo. Particulars: 125 ppm emulsion (Formulation Example 2) applied to cucumbers parasitized with offspring; 25° C., humidity 65%; after five days. From the text:
Test case 1 Efficacy against Aphis gossypii
The test was repeated twice.

The values that follow come from patent US8598367B2, “Nitrogen-containing heterocyclic compound and pest control agent” (Nippon Soda Co., Ltd., priority 2008, dated 2013).

The structures appear in SMILES notation.

`Cc1cc(Cl)ccc1N=CN(C)C` [chlordimeform] yielded an insect mortality rate in data set [1] of 9%. Consider `Cc1nc(N(C)C)nc(OC(=O)N(C)C)c1C` [pirimicarb], for which the insect mortality rate in data set [2] is listed as 9%.
